Experiment [1] concerns the target T1, NEP (Rattus norvegicus, UniProt P07861).
T1 sequence (P07861 1-750): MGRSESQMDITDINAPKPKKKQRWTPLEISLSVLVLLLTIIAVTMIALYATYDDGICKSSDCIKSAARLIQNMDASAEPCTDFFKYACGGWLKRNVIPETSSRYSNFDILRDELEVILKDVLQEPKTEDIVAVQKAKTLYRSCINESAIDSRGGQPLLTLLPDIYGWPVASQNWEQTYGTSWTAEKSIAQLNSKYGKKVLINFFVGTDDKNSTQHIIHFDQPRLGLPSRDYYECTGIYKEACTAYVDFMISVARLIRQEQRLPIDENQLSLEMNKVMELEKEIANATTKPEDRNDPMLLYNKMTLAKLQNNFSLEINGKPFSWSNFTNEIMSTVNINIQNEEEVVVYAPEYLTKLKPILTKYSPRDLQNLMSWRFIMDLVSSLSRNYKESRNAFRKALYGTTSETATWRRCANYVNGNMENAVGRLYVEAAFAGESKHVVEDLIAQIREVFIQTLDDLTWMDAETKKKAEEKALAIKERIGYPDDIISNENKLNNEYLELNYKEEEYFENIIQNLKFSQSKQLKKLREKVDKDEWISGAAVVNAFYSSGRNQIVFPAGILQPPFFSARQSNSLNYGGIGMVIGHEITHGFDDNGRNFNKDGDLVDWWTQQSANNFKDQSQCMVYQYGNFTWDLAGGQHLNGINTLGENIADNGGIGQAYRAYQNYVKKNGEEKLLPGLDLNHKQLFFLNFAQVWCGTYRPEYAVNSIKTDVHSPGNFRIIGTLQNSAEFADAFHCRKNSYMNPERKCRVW
Nature of the experiment: In vitro NEP-inhibitory activity in rat kidney cortex membranes ([3H][Leu5]-enkephaline hydrolysis). In kind it is biochemical. Details: Kidneys were removed from male Sprague-Dawley rats weighing approximately 300 g; from tissue; host or cells: rat kidney cortex membranes (male Sprague-Dawley). The following applies: [3H][Leu5]-enkephaline 15 nM, 30°C. How it is done:
The NEP-inhibitory activity was evaluated in rat kidney cortex membranes prepared according to the procedure described by T. Maeda et al. in Biochim. Biophys.
Kidneys were removed from male Sprague-Dawley rats weighing approximately 300 g and kept at 4°C.
Kidney cortex was carefully dissected, finely minced and suspended in a homogenization buffer (10 mM sodium phosphate pH 7.4 containing 1 mM MgCl2, 30 mM NaCl, 0.02% NaN3) 1:15 weight/volume.
The tissue was then cold homogenized for 30 seconds using an Ultra-Turrax homogenizer.
The membranes were collected from the buffer/sucrose interface, washed twice with 50 mM TRIS/HCl buffer (pH 7.4) and resuspended into the same buffer for storage in small aliquots at -80°C until use.
The NEP-inhibitory activity was evaluated by using the method described by C.
Aliquots of the membrane suspension prepared as above described (concentration 5 µg/ml of proteins) were preincubated in the presence of an aminopeptidase inhibitor (Bestatin - 1 mM) for 10 minutes at 30°C.
Incubation (20 minutes at 30°C) was stopped by adding HCI 0.1M (100 µl).
The formation of the metabolite [^3H]Tyr-Gly-Gly was quantified by chromatography on polystyrene columns (Porapak Q).
The percentage of inhibition of the metabolite formation in the membrane preparations treated with the compounds of formula I and with the comparative compounds with respect to the untreated membrane preparations was expressed as IC50 (nM) value.

The target of experiment [2] is T2, ACE (Oryctolagus cuniculus, UniProt P12822).
T2 construct: ACE (250 mU/ml purified by lung rabbit, EC 3.4.15.1 SIGMA); purchased SIGMA; host or cells: rabbit lung (tissue-purified)
T2 sequence (P12822 34-1310): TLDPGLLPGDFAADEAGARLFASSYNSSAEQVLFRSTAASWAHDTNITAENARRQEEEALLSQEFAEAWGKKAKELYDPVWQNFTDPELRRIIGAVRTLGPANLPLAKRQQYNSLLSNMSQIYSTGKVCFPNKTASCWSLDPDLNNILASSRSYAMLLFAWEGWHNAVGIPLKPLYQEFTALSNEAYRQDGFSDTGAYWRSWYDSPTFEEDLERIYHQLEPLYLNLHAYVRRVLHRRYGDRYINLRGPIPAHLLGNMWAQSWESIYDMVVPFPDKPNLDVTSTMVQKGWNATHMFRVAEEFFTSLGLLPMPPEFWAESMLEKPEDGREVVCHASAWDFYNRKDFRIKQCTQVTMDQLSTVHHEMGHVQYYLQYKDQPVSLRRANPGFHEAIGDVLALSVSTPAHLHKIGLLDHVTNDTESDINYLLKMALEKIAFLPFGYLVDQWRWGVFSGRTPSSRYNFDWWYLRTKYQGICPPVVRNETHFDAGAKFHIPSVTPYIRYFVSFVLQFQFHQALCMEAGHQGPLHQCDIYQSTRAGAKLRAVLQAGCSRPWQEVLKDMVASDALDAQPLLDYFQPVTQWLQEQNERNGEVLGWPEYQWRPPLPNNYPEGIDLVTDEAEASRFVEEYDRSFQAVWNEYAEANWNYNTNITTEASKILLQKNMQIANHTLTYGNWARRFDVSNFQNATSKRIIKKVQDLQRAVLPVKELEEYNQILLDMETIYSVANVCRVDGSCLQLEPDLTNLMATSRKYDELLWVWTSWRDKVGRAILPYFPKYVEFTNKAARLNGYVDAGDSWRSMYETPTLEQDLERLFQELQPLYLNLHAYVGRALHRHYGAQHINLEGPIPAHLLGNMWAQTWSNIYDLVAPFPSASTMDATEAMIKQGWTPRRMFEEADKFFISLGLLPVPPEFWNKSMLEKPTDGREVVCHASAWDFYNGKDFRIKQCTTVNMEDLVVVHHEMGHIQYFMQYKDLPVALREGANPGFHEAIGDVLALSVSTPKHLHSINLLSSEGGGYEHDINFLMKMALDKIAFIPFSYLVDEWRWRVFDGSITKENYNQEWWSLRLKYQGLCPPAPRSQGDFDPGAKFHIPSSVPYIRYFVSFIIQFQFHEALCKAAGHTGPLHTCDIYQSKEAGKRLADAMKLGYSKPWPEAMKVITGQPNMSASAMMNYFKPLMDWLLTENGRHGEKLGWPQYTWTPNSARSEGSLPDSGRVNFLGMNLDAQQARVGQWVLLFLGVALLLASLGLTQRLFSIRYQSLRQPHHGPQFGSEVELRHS
Nature of the experiment: In vitro ACE-inhibitory activity (FAPGG substrate, spectrophotometric). The experiment is classed as biochemical. The note with it: ACE purified by lung rabbit, FAPGG 0.8 mM, 37°C. The protocol:
[…] of ACE (250 mU/ml purified by lung rabbit, EC 3.4.15.1 SIGMA) were preincubated with 50 µl of the compound of formula I or of the reference compound or related vehicle in thermostated cuvettes at 37°C.
The reaction was started by adding furylacryloylphenylalanylglycylglycine 0.8 mM (FAPGG-SIGMA).
Contemporaneously, by using a Beckman DU-50 spectrophotometer provided with a program for calculating delta A/minutes and regression coefficients of the enzyme kinetics curves, the absorbance at 340 nm was recorded in continuo for 5 minutes.
The percentage of the enzyme inhibition in the preparations treated with the compounds of formula I or with the comparative compounds with respect to the untreated preparations was expressed as IC50 (nM) value.

What is called IC50 is the concentration that inhibits the measured activity by half. Low readings indicate greater potency, high ones weaker potency. In the case of `O=C(N[C@@H](Cc1ccc(-c2nccs2)cc1)C(=O)O)C(CS)Cc1cccnc1` (single isomer, unassigned) [Compound 27, N-[3-mercapto-2-(3-pyridylmethyl)propionyl]-4-(2-thiazolyl)-L-phenylalanine], the IC50 came out at 17.3 nM in experiment [1] and 9.1 nM in experiment [2].

Regarding `C[C@H](CS)C(=O)N1CCC[C@H]1C(=O)O` [Captopril, reference compound], the “NEP-inhibitory activity IC50 (nM)” value in experiment [1] is reported as “not active”.

For `O=C(N[C@@H](Cc1ccc(-c2ccco2)cc1)C(=O)O)[C@@H](CS)Cc1ccccc1` [Compound 18, N-[(2S)-3-mercapto-2-phenylmethylpropionyl]-4-(2-furyl)-L-phenylalanine], the IC50 in experiment [1] and in experiment [2] was 1.8 nM in each case.

`O=C(N[C@@H](Cc1ccc(-c2cncnc2)cc1)C(=O)O)[C@@H](CS)Cc1ccccc1` [Compound 19, N-[(2S)-3-mercapto-2-phenylmethylpropionyl]-4-(5-pyrimidinyl)-L-phenylalanine]: the IC50 in experiment [1] was determined as 1.8 nM; in experiment [2] it was 1.9 nM.

Take `O=C(N[C@@H](Cc1ccc(-c2cnccn2)cc1)C(=O)O)[C@@H](CS)Cc1ccccc1` [Compound 20, N-[(2S)-3-mercapto-2-phenylmethylpropionyl]-4-(2-pyrazinyl)-L-phenylalanine]: the values for the IC50 in experiment [1] and in experiment [2] were 2.5 nM and 1.5 nM, respectively.

With `O=C(N[C@@H](Cc1ccc(-c2cccnc2)cc1)C(=O)O)[C@@H](CS)Cc1ccccc1` [Compound 21, N-[(2S)-3-mercapto-2-phenylmethylpropionyl]-4-(3-pyridyl)-L-phenylalanine], the results for the half-maximal inhibitory concentration (IC50) in experiment [1] and in experiment [2] were 2.6 nM and 1.7 nM, respectively.

Turning to `O=C(N[C@@H](Cc1ccc(-c2ccccn2)cc1)C(=O)O)[C@@H](CS)Cc1ccccc1` [Compound 22, N-[(2S)-3-mercapto-2-phenylmethylpropionyl]-4-(2-pyridyl)-L-phenylalanine], the IC50 in experiment [1] came out at 2 nM; in experiment [2] it was 1.8 nM.

For `O=C(N[C@@H](Cc1ccc(-c2cccs2)cc1)C(=O)O)[C@@H](CS)Cc1ccccc1` [Compound 23, N-[(2S)-3-mercapto-2-phenylmethylpropionyl]-4-(2-thienyl)-L-phenylalanine], the figures for the IC50 in experiment [1] and in experiment [2] were 0.6 nM and 1.6 nM, respectively.

As to `O=C(N[C@@H](Cc1ccc(-c2ccsc2)cc1)C(=O)O)[C@@H](CS)Cc1ccccc1` [Compound 24, N-[(2S)-3-mercapto-2-phenylmethylpropionyl]-4-(3-thienyl)-L-phenylalanine], the IC50 in experiment [1] was found to be 1.3 nM; in experiment [2] it was 2.5 nM.

In the case of `O=C(N[C@@H](Cc1ccc(-c2ccoc2)cc1)C(=O)O)[C@@H](CS)Cc1ccccc1` [Compound 25, N-[(2S)-3-mercapto-2-phenylmethylpropionyl]-4-(3-furyl)-L-phenylalanine], the IC50 in experiment [1] amounted to 1 nM; in experiment [2], 2.4 nM.

Regarding `CC(C)CC(CS)C(=O)N[C@@H](Cc1ccc(-c2nccs2)cc1)C(=O)O` (stereo partly drawn) [Compound 28, N-(2-isobutyl-3-mercapto-propionyl)-4-(2-thiazolyl)-L-phenylalanine], the 50% inhibitory concentration (IC50) in experiment [1] worked out at 1.8 nM; in experiment [2], 5.8 nM.

Consider `COc1cccc(CC(CS)C(=O)N[C@@H](Cc2ccc(-c3nccs3)cc2)C(=O)O)c1` (stereo partly drawn) [Compound 29, N-[3-mercapto-2-(3-methoxyphenyl)methyl-propionyl]-4-(2-thiazolyl)-L-phenylalanine], for which the IC50 turned out to be 9 nM in experiment [1] and 4.6 nM in experiment [2].

As to `O=C(N[C@@H](Cc1ccc(-c2nccs2)cc1)C(=O)O)C(CS)Cc1ccccc1F` (stereo partly drawn) [Compound 30, N-[3-mercapto-2-(2-fluorophenyl)methyl-propionyl]-4-(2-thiazolyl)-L-phenylalanine], the results for the IC50 in experiment [1] and in experiment [2] were 11.2 nM and 10.7 nM, respectively.

Consider `O=C(N[C@@H](Cc1ccc(-c2nccs2)cc1)C(=O)O)C(CS)Cc1cccs1` (stereo partly drawn) [Compound 31, N-[3-mercapto-2-(2-thienyl)methyl-proionyl]-4-(2-thiazolyl)-L-phenylalanine], for which the values for the IC50 in experiment [1] and in experiment [2] were 1.2 nM and 8.6 nM, respectively.

In the case of `O=C(N[C@@H](Cc1ccc(-c2nccs2)cc1)C(=O)O)C(CS)Cc1ccco1` (stereo partly drawn) [Compound 32, N-[3-mercapto-2-(2-furyl)methyl-propionyl]-4-(2-thiazolyl)-L-phenylalanine], the figures for the half-maximal inhibitory concentration (IC50) in experiment [1] and in experiment [2] were 4 nM and 8.6 nM, respectively.

`Cc1cc(CC(CS)C(=O)N[C@@H](Cc2ccc(-c3nccs3)cc2)C(=O)O)on1` (stereo partly drawn) [Compound 33, N-[3-mercapto-2-(3-methyl-5-isoxazolyl)methyl-propionyl]-4-(2-thiazolyl)-L-phenylalanine]: the results for the IC50 in experiment [1] and in experiment [2] were 4.5 nM and 7.9 nM, respectively.

Source of the values: patent publication EP0877740B1, “THIOL DERIVATIVES WITH METALLOPEPTIDASE INHIBITORY ACTIVITY” (ZAMBON GROUP S.p.A., priority 1995, dated 1997).
